Measurements: publication PMC5218480 (PLoS ONE, 2017)

System: MV-4-11 cells
Experiment: Gene expression microarray analysis (Affymetrix PrimeView) and GSEA
Type: cell-based, human
Set-up: RFU PODN (11730768_x_at) / Fold change /veh PODN (11730768_x_at) / RFU LINC00158 (11744669_a_at) / Fold change /veh LINC00158 (11744669_a_at) / RFU DUSP10 (11751237_a_at) / Fold change /veh DUSP10 (11751237_a_at) / RFU ID3 (11757404_x_at) / Fold change /veh ID3 (11757404_x_at) / RFU PLEKHG5 (11737974_s_at) / Fold change /veh PLEKHG5 (11737974_s_at) / RFU LRRC4B (11730491_at) / Fold change /veh LRRC4B (11730491_at) / RFU GIMAP4 (11747438_a_at) / Fold change /veh GIMAP4 (11747438_a_at) / RFU KRT8 (11758183_x_at) / Fold change /veh KRT8 (11758183_x_at) / RFU CNN1 (11734310_a_at) / Fold change /veh CNN1 (11734310_a_at) / RFU VPS37D (11726825_at) / Fold change /veh VPS37D (11726825_at) / RFU C10orf10 (11716522_x_at) / Fold change /veh C10orf10 (11716522_x_at) / RFU KIR2DL2 /// KIR2DL4 /// KIR2DL5A /// KIR2DL5B /// KIR2DS1 /// KIR2DS2 /// KIR2DS3 /// KIR2DS4 /// KIR3DL3 /// KIR3DL3 /// KIR3DS1 (11738374_at) / Fold change /veh KIR2DL2 /// KIR2DL4 /// KIR2DL5A /// KIR2DL5B /// KIR2DS1 /// KIR2DS2 /// KIR2DS3 /// KIR2DS4 /// KIR3DL3 /// KIR3DL3 /// KIR3DS1 (11738374_at) / RFU C1QL1 (11718748_at) / Fold change /veh C1QL1 (11718748_at) / RFU TMPRSS4 (11747572_a_at) / Fold change /veh TMPRSS4 (11747572_a_at) / RFU HAMP (11756126_x_at) / Fold change /veh HAMP (11756126_x_at) / RFU RNFT2 (11725882_a_at) / Fold change /veh RNFT2 (11725882_a_at) / RFU NR4A2 (11747474_a_at) / Fold change /veh NR4A2 (11747474_a_at) / RFU ABCC12 (11746883_a_at) / Fold change /veh ABCC12 (11746883_a_at) / RFU TMEM136 (11760407_x_at) / Fold change /veh TMEM136 (11760407_x_at) / RFU CLDN22 /// WWC2 (11732394_at) / Fold change /veh CLDN22 /// WWC2 (11732394_at) / RFU HLA-DPB1 (11760878_x_at) / Fold change /veh HLA-DPB1 (11760878_x_at) / RFU SPINT1 (11716480_a_at) / Fold change /veh SPINT1 (11716480_a_at) / RFU GAP43 (11754022_s_at) / Fold change /veh GAP43 (11754022_s_at) / RFU A4GNT (11735810_at) / Fold change /veh A4GNT (11735810_at) / RFU PRB3 (11715151_x_at) / Fold change /veh PRB3 (11715151_x_at) / RFU TUBB4B (11761932_at) / Fold change /veh TUBB4B (11761932_at) / RFU CAPN14 (11732068_a_at) / Fold change /veh CAPN14 (11732068_a_at) / RFU TMCC2 (11721928_a_at) / Fold change /veh TMCC2 (11721928_a_at) / RFU IRGQ (11745062_a_at) / Fold change /veh IRGQ (11745062_a_at) / RFU FAM174B (11720279_a_at) / Fold change /veh FAM174B (11720279_a_at) / RFU TMPRSS4 (11748680_a_at) / Fold change /veh TMPRSS4 (11748680_a_at) / RFU FAM212B (11763350_a_at) / Fold change /veh FAM212B (11763350_a_at) / RFU PLEKHG5 (11743358_a_at) / Fold change /veh PLEKHG5 (11743358_a_at) / RFU ZSCAN30 (11745921_a_at) / Fold change /veh ZSCAN30 (11745921_a_at) / RFU CMKLR1 (11741424_a_at) / Fold change /veh CMKLR1 (11741424_a_at) / RFU LOC101060620 /// MAPK8IP1 (11723275_at) / Fold change /veh LOC101060620 /// MAPK8IP1 (11723275_at) / RFU SPTSSB (11747773_x_at) / Fold change /veh SPTSSB (11747773_x_at) / RFU PRSS12 (11739890_at) / Fold change /veh PRSS12 (11739890_at) / RFU BIN1 (11741810_x_at) / Fold change /veh BIN1 (11741810_x_at) / RFU WNT11 (11732464_a_at) / Fold change /veh WNT11 (11732464_a_at) / RFU C10orf10 (11716521_a_at) / Fold change /veh C10orf10 (11716521_a_at) / RFU C5orf56 (11738089_at) / Fold change /veh C5orf56 (11738089_at) / RFU CYB561 (11721691_x_at) / Fold change /veh CYB561 (11721691_x_at) / RFU ANKRD19P (11752326_a_at) / Fold change /veh ANKRD19P (11752326_a_at) / RFU OR2T12 /// OR2T33 /// OR2T8 (11738714_s_at) / Fold change /veh OR2T12 /// OR2T33 /// OR2T8 (11738714_s_at) / RFU VCAN (11748164_a_at) / Fold change /veh VCAN (11748164_a_at) / RFU JSRP1 (11732532_at) / Fold change /veh JSRP1 (11732532_at) / RFU KRTAP10-11 (11738290_x_at) / Fold change /veh KRTAP10-11 (11738290_x_at) / RFU MYO3A (11730013_a_at) / Fold change /veh MYO3A (11730013_a_at) / RFU EBF3 (11725865_a_at) / Fold change /veh EBF3 (11725865_a_at) / RFU CAMK2N1 (11719241_x_at) / Fold change /veh CAMK2N1 (11719241_x_at) / RFU C5orf56 (11738088_a_at) / Fold change /veh C5orf56 (11738088_a_at) / RFU OLFML3 (11715873_a_at) / Fold change /veh OLFML3 (11715873_a_at) / RFU LOC100653217 /// NTM (11731650_a_at) / Fold change /veh LOC100653217 /// NTM (11731650_a_at) / RFU MAPK11 (11762145_a_at) / Fold change /veh MAPK11 (11762145_a_at) / RFU FIZ1 (11724087_x_at) / Fold change /veh FIZ1 (11724087_x_at) / RFU OASL (11726364_x_at) / Fold change /veh OASL (11726364_x_at) / RFU SOX15 (11748057_x_at) / Fold change /veh SOX15 (11748057_x_at) / RFU CD79A (11719716_a_at) / Fold change /veh CD79A (11719716_a_at) / RFU HIST1H1D (11736915_at) / Fold change /veh HIST1H1D (11736915_at) / RFU CASKIN2 (11723855_a_at) / Fold change /veh CASKIN2 (11723855_a_at) / RFU LOC730098 (11760151_x_at) / Fold change /veh LOC730098 (11760151_x_at) / RFU OR4N2 (11742367_at) / Fold change /veh OR4N2 (11742367_at) / RFU PRRT2 (11749266_a_at) / Fold change /veh PRRT2 (11749266_a_at) / RFU SNX32 (11753110_a_at) / Fold change /veh SNX32 (11753110_a_at) / RFU CDHR5 (11726645_a_at) / Fold change /veh CDHR5 (11726645_a_at) / RFU RCAN1 (11760418_a_at) / Fold change /veh RCAN1 (11760418_a_at) / RFU FAM167A (11723789_a_at) / Fold change /veh FAM167A (11723789_a_at) / RFU FAM26E (11764081_at) / Fold change /veh FAM26E (11764081_at) / RFU ISYNA1 (11749810_s_at) / Fold change /veh ISYNA1 (11749810_s_at) / RFU ACY1 (11761880_at) / Fold change /veh ACY1 (11761880_at) / RFU 11764098_at / Fold change /veh 11764098_at / RFU SAMD14 (11745864_x_at) / Fold change /veh SAMD14 (11745864_x_at) / RFU NPB (11741838_a_at) / Fold change /veh NPB (11741838_a_at) / RFU TMPRSS6 (11731388_a_at) / Fold change /veh TMPRSS6 (11731388_a_at) / RFU KRTAP10-2 (11738614_at) / Fold change /veh KRTAP10-2 (11738614_at) / RFU ARHGAP8 /// PRR5-ARHGAP8 (11727945_x_at) / Fold change /veh ARHGAP8 /// PRR5-ARHGAP8 (11727945_x_at) / RFU KRTAP5-7 /// NADSYN1 (11734609_at) / Fold change /veh KRTAP5-7 /// NADSYN1 (11734609_at) / RFU RASL12 (11751679_a_at) / Fold change /veh RASL12 (11751679_a_at) / RFU CDKN2B (11736163_a_at) / Fold change /veh CDKN2B (11736163_a_at) / RFU PRF1 (11729649_at) / Fold change /veh PRF1 (11729649_at) / RFU, ZNF638 /// ZNF638-IT1 / Fold change vs veh, ZNF638 /// ZNF638-IT1 / RFU, PANK3 / Fold change vs veh, PANK3 / RFU, SH3YL1 / Fold change vs veh, SH3YL1 / RFU, ZEB2 / Fold change vs veh, ZEB2 / RFU, NRIP1 / Fold change vs veh, NRIP1 / RFU, PTTG1IP / Fold change vs veh, PTTG1IP / RFU, CAPN2 / Fold change vs veh, CAPN2 / RFU, MED14 / Fold change vs veh, MED14 / RFU, SNORA58 / Fold change vs veh, SNORA58 / RFU, C1orf63 / Fold change vs veh, C1orf63 / RFU, LRRFIP1 / Fold change vs veh, LRRFIP1 / RFU, NDUFAF7 / Fold change vs veh, NDUFAF7 / RFU, SLC12A2 / Fold change vs veh, SLC12A2 / RFU, IBTK / Fold change vs veh, IBTK / RFU, ESF1 / Fold change vs veh, ESF1 / Fold change vs veh, TMEM50B / RFU, TAOK1 / Fold change vs veh, TAOK1 / RFU, ACBD3 / Fold change vs veh, ACBD3 / RFU, TMA16 / Fold change vs veh, TMA16 / RFU, RWDD3 / Fold change vs veh, RWDD3 / RFU, BCAT1 / Fold change vs veh, BCAT1 / RFU, EDEM3 / Fold change vs veh, EDEM3 / RFU, TMEM33 / Fold change vs veh, TMEM33 / RFU, WDR75 / Fold change vs veh, WDR75 / RFU, AHCTF1 / Fold change vs veh, AHCTF1 / RFU, TFRC / Fold change vs veh, TFRC / RFU, ZDHHC17 / Fold change vs veh, ZDHHC17 / RFU, NOM1 / Fold change vs veh, NOM1 / RFU, ARL8B / Fold change vs veh, ARL8B / RFU, ZBTB11 / Fold change vs veh, ZBTB11 / RFU, TAMM41 / Fold change vs veh, TAMM41 / RFU, KIAA1704 /// LOC100996395 / Fold change vs veh, KIAA1704 /// LOC100996395 / RFU, ING1 / Fold change vs veh, ING1 / RFU, TRMT61B / Fold change vs veh, TRMT61B / RFU, FUBP3 / Fold change vs veh, FUBP3 / RFU, TP53 / Fold change vs veh, TP53 / RFU, TNKS2 / Fold change vs veh, TNKS2 / RFU, ZFP14 / Fold change vs veh, ZFP14 / RFU, ACTR2 / Fold change vs veh, ACTR2 / RFU, PPP3R1 / Fold change vs veh, PPP3R1 / RFU, PIK3R1 / Fold change vs veh, PIK3R1 / RFU, HNRNPA1 / Fold change vs veh, HNRNPA1 / RFU, RNF170 / Fold change vs veh, RNF170 / RFU, ZNF28 / Fold change vs veh, ZNF28 / RFU, RNGTT / Fold change vs veh, RNGTT / RFU, OGT / Fold change vs veh, OGT / RFU, BRD1 / Fold change vs veh, BRD1 / RFU, MARS / Fold change vs veh, MARS / RFU, ZNF655 / Fold change vs veh, ZNF655 / RFU, FAHD1 / Fold change vs veh, FAHD1 / RFU, BDP1 / Fold change vs veh, BDP1 / RFU, LRRCC1 / Fold change vs veh, LRRCC1 / RFU, ARID1A / Fold change vs veh, ARID1A / RFU, ZNF146 / Fold change vs veh, ZNF146 / RFU, ZNF330 / Fold change vs veh, ZNF330 / RFU, GPN3 / Fold change vs veh, GPN3 / RFU, C9orf123 / Fold change vs veh, C9orf123 / RFU, N4BP2L2 / Fold change vs veh, N4BP2L2 / RFU, ARFIP1 / Fold change vs veh, ARFIP1 / RFU, FAM179B / Fold change vs veh, FAM179B / RFU, BCL10 / Fold change vs veh, BCL10 / RFU, UHRF1BP1L / Fold change vs veh, UHRF1BP1L / RFU, BET1 / Fold change vs veh, BET1 / RFU, CNOT2 / Fold change vs veh, CNOT2 / RFU, ZNF268 / Fold change vs veh, ZNF268 / Fold change vs veh, ZNF507 / RFU, DGCR2 / Fold change vs veh, DGCR2 / RFU, WDSUB1 / Fold change vs veh, WDSUB1 / Fold change vs veh, HSP90B1 /// MIR3652 / RFU, ADSS / Fold change vs veh, ADSS / RFU, GK / Fold change vs veh, GK / RFU, ZNF148 / Fold change vs veh, ZNF148 / RFU, TAF9 / Fold change vs veh, TAF9 / RFU, SLC1A5 / Fold change vs veh, SLC1A5 / RFU, SLMO2 / Fold change vs veh, SLMO2 / RFU, ABCC4 / Fold change vs veh, ABCC4 / RFU, LOC101060439 /// RAP1B / Fold change vs veh, LOC101060439 /// RAP1B / RFU, RFX7 / Fold change vs veh, RFX7 / RFU, GTPBP10 / Fold change vs veh, GTPBP10 / RFU, CNEP1R1 / Fold change vs veh, CNEP1R1 / RFU, BIVM-ERCC5 /// ERCC5 / Fold change vs veh, BIVM-ERCC5 /// ERCC5 / RFU, ILF3 / Fold change vs veh, ILF3 / RFU 11762660_at / Fold change /veh 11762660_at / RFU VCAN (11757783_s_at) / Fold change /veh VCAN (11757783_s_at) / RFU DDX43 (11728927_at) / Fold change /veh DDX43 (11728927_at) / RFU KRT8 (11758188_x_at) / Fold change /veh KRT8 (11758188_x_at) / RFU NKD1 (11759106_at) / Fold change /veh NKD1 (11759106_at) / RFU SRD5A1 (11742802_a_at) / Fold change /veh SRD5A1 (11742802_a_at) / RFU TPSAB1 /// TPSB2 (11721975_s_at) / Fold change /veh TPSAB1 /// TPSB2 (11721975_s_at) / RFU GSTM3 (11746129_a_at) / Fold change /veh GSTM3 (11746129_a_at) / RFU IL23R (11737362_x_at) / Fold change /veh IL23R (11737362_x_at) / RFU TMEM51 (11727254_a_at) / Fold change /veh TMEM51 (11727254_a_at) / RFU PIWIL2 (11732686_x_at) / Fold change /veh PIWIL2 (11732686_x_at) / RFU ORM1 (11744905_x_at) / Fold change /veh ORM1 (11744905_x_at) / RFU CCDC152 (11743942_at) / Fold change /veh CCDC152 (11743942_at) / RFU ECM1 (11717891_a_at) / Fold change /veh ECM1 (11717891_a_at) / RFU IL23R (11748794_a_at) / Fold change /veh IL23R (11748794_a_at) / RFU TNFAIP8L3 (11732012_x_at) / Fold change /veh TNFAIP8L3 (11732012_x_at) / RFU MBOAT4 (11741988_at) / Fold change /veh MBOAT4 (11741988_at) / RFU 11764193_at / Fold change /veh 11764193_at / RFU TMEM53 (11763286_at) / Fold change /veh TMEM53 (11763286_at) / RFU MAGEB2 (11727129_at) / Fold change /veh MAGEB2 (11727129_at) / RFU TMEM200A (11744735_a_at) / Fold change /veh TMEM200A (11744735_a_at) / RFU CCDC152 (11751479_a_at) / Fold change /veh CCDC152 (11751479_a_at) / RFU FAM211A (11726209_a_at) / Fold change /veh FAM211A (11726209_a_at) / RFU RGS16 (11746705_a_at) / Fold change /veh RGS16 (11746705_a_at) / RFU VCAN (11755009_s_at) / Fold change /veh VCAN (11755009_s_at) / RFU RHOB (11743442_s_at) / Fold change /veh RHOB (11743442_s_at) / RFU RGS16 (11720943_a_at) / Fold change /veh RGS16 (11720943_a_at) / RFU RGS16 (11720944_at) / Fold change /veh RGS16 (11720944_at) / RFU, VPS4B / Fold change vs veh, VPS4B / RFU, CREB1 / Fold change vs veh, CREB1 / RFU, DNAJC13 / Fold change vs veh, DNAJC13 / RFU, GNAQ / Fold change vs veh, GNAQ / RFU, CDK5R1 / Fold change vs veh, CDK5R1 / RFU, ZRANB3 / Fold change vs veh, ZRANB3 / RFU, CUL4A / Fold change vs veh, CUL4A / RFU, CCNY / Fold change vs veh, CCNY / RFU, UFL1 / Fold change vs veh, UFL1 / RFU, COG3 / Fold change vs veh, COG3 / RFU, DIAPH2 / Fold change vs veh, DIAPH2 / RFU, SKA2 / Fold change vs veh, SKA2 / RFU, AFF3 / Fold change vs veh, AFF3 / RFU, LMF1 / Fold change vs veh, LMF1 / RFU, IPO11 / Fold change vs veh, IPO11 / RFU, DFFB / Fold change vs veh, DFFB / RFU, FOXP1 / Fold change vs veh, FOXP1 / RFU, CARD8 / Fold change vs veh, CARD8 / RFU, STRN3 / Fold change vs veh, STRN3 / RFU, ADK / Fold change vs veh, ADK / RFU, RASSF2 / Fold change vs veh, RASSF2 / RFU, WIPF1 / Fold change vs veh, WIPF1 / RFU, LARP1B / Fold change vs veh, LARP1B / RFU, RASA1 / Fold change vs veh, RASA1 / RFU, RB1 / Fold change vs veh, RB1 / RFU, PPFIA1 / Fold change vs veh, PPFIA1 / RFU, MAT2A / Fold change vs veh, MAT2A / RFU, CCT5 / Fold change vs veh, CCT5 / RFU, WDR92 / Fold change vs veh, WDR92 / RFU, CUX1 / Fold change vs veh, CUX1 / RFU, TTC7A / Fold change vs veh, TTC7A / RFU, TMEM135 / Fold change vs veh, TMEM135 / RFU, DEPTOR / Fold change vs veh, DEPTOR / RFU, CPM / Fold change vs veh, CPM / RFU, DNAJB6 / Fold change vs veh, DNAJB6 / RFU, CACNA2D3 / Fold change vs veh, CACNA2D3 / RFU, DTX4 / Fold change vs veh, DTX4 / RFU, TFCP2 / Fold change vs veh, TFCP2 / RFU, GMCL1 /// GMCL1P1 / Fold change vs veh, GMCL1 /// GMCL1P1 / RFU, AEBP2 / Fold change vs veh, AEBP2 / RFU, SNHG1 /// SNORD22 /// SNORD25 /// SNORD26 /// SNORD27 /// SNORD28 /// SNORD29 /// SNORD31 / Fold change vs veh, SNHG1 /// SNORD22 /// SNORD25 /// SNORD26 /// SNORD27 /// SNORD28 /// SNORD29 /// SNORD31 / Fold change (Aza/veh), C12orf56 (ProbeSet 11735607_a_at) / Fold change (ACY-1035/veh), C12orf56 (ProbeSet 11735607_a_at) / Fold change (Aza/veh), FGFR1OP (ProbeSet 11751329_s_at) / Fold change (ACY-1035/veh), FGFR1OP (ProbeSet 11751329_s_at) / Fold change (Aza/veh), VPS36 (ProbeSet 11739960_a_at) / Fold change (ACY-1035/veh), VPS36 (ProbeSet 11739960_a_at) / RFU SYPL1 (11715823_x_at) / Fold change /veh SYPL1 (11715823_x_at) / RFU IGFBP7 (11715501_s_at) / Fold change /veh IGFBP7 (11715501_s_at) / RFU REEP3 (11722064_at) / Fold change /veh REEP3 (11722064_at) / RFU IGLL1 (11728026_x_at) / Fold change /veh IGLL1 (11728026_x_at): dose or concentration left out as unconfirmed
Conditions: ProbeSet 11748335_a_at; LIST B

## Nc1ccc(-c2cccs2)cc1NC(=O)c1ccc2c(c1)cc(C1CC1)n2CCN1CCOCC1 [ACY-1035]
  RFU, SLMO2: 145.26 RFU
